Measured values: US10772900B2, “Drug target for treating veterinary infections and methods of using same” (THE TRUSTEES OF THE UNIVERSITY OF PENNSYLVANIA, priority 2016, dated 2020)

Assays:
Plasmodium falciparum [1] = details: cited from earlier work
S. epidermidis [2] = test: MIC and MBC assays in Mueller-Hinton broth; format: cell-based; details: Staphylococcus epidermidis, 37° C., 18-20 hours, read-out: MIC (concentration at which bacteria still grew normally)
Method: (§1) The minimal inhibitory concentration (MIC) of various antimicrobials (amoxicillin-clavulanic acid, ampicillin, cefazolin, chloramphenicol, ciprofloxacin, clindamycin, erythromycin, gentamicin, imipenem, oxacillin, penicillin, rifampin, tetracycline, trimethoprim-sulfamethoxazole, and vancomycin) was determined via broth microdilution on a MicroScan Walkaway 40 PC20 Gram-positive combo-panel (Dade Behring, Sacramento, Calif.). Enrofloxacin and marbofloxacin susceptibilities were determined via Kirby-Bauer disk diffusion as these drugs were not available on the pre-configured commercial test panel. Fosmidomycin MIC assays were performed following clinical laboratory standards. Fosmidomycin (Sigma, St. Louis, USA) was filter-sterilized with a […] filter (Pall Corporation, Ann Arbor, USA) and was serially 2-fold diluted in a concentration range of 40.96-0.25 mg/mL. Tubes containing 1 mL Mueller-Hinton broth (Sigma) were inoculated with 5×10^5 colony forming units/mL. 50 μL of the appropriate fosmidomycin concentration was added to each tube containing the starter culture, and was incubated at 37° C. overnight with shaking at 250 rpm for 18-20 hours. The MICS were determined by visual inspection. The minimum bactericidal concentration (MBC) was determined by plating 200 μL of the drug-treated cultures onto Mueller-Hinton agar plates (Remel, Lenexa, USA). The lowest concentration at which there was no growth after a 24-hour incubation at 37° C. was determined to be the MBC. For the plate-based fosmidomycin growth assay, overnight cultures of Staphylococcus species grown in Mueller-Hinton broth were sub-cultured to Mueller-Hinton agar plates containing 50 μg/mL fosmidomycin and were incubated for 24 hours at 37° C. All assays were performed and the results were interpreted using Clinical Laboratory Standards Institute guidelines (CLSI. (2013) Approved Standard-Fourth Edition. Clinical and Laboratory Standards Institute, Wayne, Pa., USA).

S. lugdunensis = test: MIC and MBC assays in Mueller-Hinton broth; format: cell-based; details: Staphylococcus lugdunensis, 37° C., 18-20 hours, read-out: MIC (concentration at which bacteria still grew normally)
Method: as §1

S. aureus [3] = test: MIC and MBC assays in Mueller-Hinton broth; format: cell-based; details: Staphylococcus aureus, 37° C., 18-20 hours, read-out: MIC (concentration at which bacteria still grew normally)
Method: as §1

S. pseudintermedius [4] = test: MIC and MBC assays in Mueller-Hinton broth; format: cell-based, Staphylococcus pseudintermedius
Method: as §1, with “50 μL of the appropriate fosmidomycin concentration was added to each tube containing the starter culture, and was incubated at 37° C. overnight with shaking at 250 rpm for 18-20 hours.” left out, “For the plate-based fosmidomycin growth assay, overnight cultures of Staphylococcus species grown in Mueller-Hinton broth were sub-cultured to Mueller-Hinton agar plates containing 50 μg/mL fosmidomycin and were incubated for 24 hours at 37° C. All assays were performed and the results were interpreted using Clinical Laboratory Standards Institute guidelines (CLSI. (2013) Approved Standard-Fourth Edition. Clinical and Laboratory Standards Institute, Wayne, Pa., USA).” left out

[5] = fosmidomycin safety trial for otic application in dogs; format: in vivo, dog; details: 100 micrograms in sterile water twice daily to both ears, 10 days
Method: FIGS. 7A-7C are a series of plots illustrating the outcome of a fosmidomycin safety trial for otic application in dogs. Five colony dogs were used in the safety study. Four of the five dogs were homozygous for ectodermal dysplasia, while the remaining dog was a carrier (heterozygote). Each dog was treated with 100 micrograms of fosmidomycin resuspended in water and applied twice daily to both ears. Pain and inflammation were assessed using the Short Form of the Glasgow Composite Pain Scale (FIG. 7A) and the Otitis Index Score (FIG. 7B and FIG. 7C), respectively. Clinical scoring was carried out prior to fosmidomycin treatment (“pre”), each day of drug application for 10 days, and one day after the cessation of treatment (“post”). Bars represent the mean and standard deviation of scores for the group of 5 dogs at each timepoint. Dotted lines represent field-standard thresholds for clinically significant pain or inflammation.
Five research dogs were used in a safety study testing otic application of fosmidomycin. Four of the five dogs were homozygous for ectodermal dysplasia, while the remaining dog was a carrier (heterozygote). […] Pain and inflammation were assessed using the Short Form of the Glasgow Composite Pain Scale (FIG. 7A) and the Otitis Index Score (FIG. 7B and FIG. 7C), respectively. […]

S. aureus [6] = test: plate-based fosmidomycin growth assay; format: cell-based, Staphylococcus aureus; details: 50 μg/mL fosmidomycin, Mueller-Hinton agar, 24 hours at 37° C.
Method: as §1, with “50 μL of the appropriate fosmidomycin concentration was added to each tube containing the starter culture, and was incubated at 37° C. overnight with shaking at 250 rpm for 18-20 hours.” left out, “For the plate-based fosmidomycin growth assay, overnight cultures of Staphylococcus species grown in Mueller-Hinton broth were sub-cultured to Mueller-Hinton agar plates containing 50 μg/mL fosmidomycin and were incubated for 24 hours at 37° C. All assays were performed and the results were interpreted using Clinical Laboratory Standards Institute guidelines (CLSI. (2013) Approved Standard-Fourth Edition. Clinical and Laboratory Standards Institute, Wayne, Pa., USA).” left out

S. pseudintermedius [7] = test: plate-based fosmidomycin growth assay; format: cell-based, Staphylococcus pseudintermedius; details: 50 μg/mL fosmidomycin, Mueller-Hinton agar, 24 hours at 37° C.
Method: as §1, with “50 μL of the appropriate fosmidomycin concentration was added to each tube containing the starter culture, and was incubated at 37° C. overnight with shaking at 250 rpm for 18-20 hours.” left out, “For the plate-based fosmidomycin growth assay, overnight cultures of Staphylococcus species grown in Mueller-Hinton broth were sub-cultured to Mueller-Hinton agar plates containing 50 μg/mL fosmidomycin and were incubated for 24 hours at 37° C. All assays were performed and the results were interpreted using Clinical Laboratory Standards Institute guidelines (CLSI. (2013) Approved Standard-Fourth Edition. Clinical and Laboratory Standards Institute, Wayne, Pa., USA).” left out

S. sciuri = test: MIC and MBC assays in Mueller-Hinton broth; format: cell-based, Staphylococcus sciuri
Method: as §1, with “50 μL of the appropriate fosmidomycin concentration was added to each tube containing the starter culture, and was incubated at 37° C. overnight with shaking at 250 rpm for 18-20 hours.” left out, “For the plate-based fosmidomycin growth assay, overnight cultures of Staphylococcus species grown in Mueller-Hinton broth were sub-cultured to Mueller-Hinton agar plates containing 50 μg/mL fosmidomycin and were incubated for 24 hours at 37° C. All assays were performed and the results were interpreted using Clinical Laboratory Standards Institute guidelines (CLSI. (2013) Approved Standard-Fourth Edition. Clinical and Laboratory Standards Institute, Wayne, Pa., USA).” left out

S. epidermidis [8] = test: plate-based fosmidomycin growth assay; format: cell-based, Staphylococcus epidermidis; details: 50 μg/mL fosmidomycin, Mueller-Hinton agar, 24 hours at 37° C.
Method: as §1, with “50 μL of the appropriate fosmidomycin concentration was added to each tube containing the starter culture, and was incubated at 37° C. overnight with shaking at 250 rpm for 18-20 hours.” left out, “For the plate-based fosmidomycin growth assay, overnight cultures of Staphylococcus species grown in Mueller-Hinton broth were sub-cultured to Mueller-Hinton agar plates containing 50 μg/mL fosmidomycin and were incubated for 24 hours at 37° C. All assays were performed and the results were interpreted using Clinical Laboratory Standards Institute guidelines (CLSI. (2013) Approved Standard-Fourth Edition. Clinical and Laboratory Standards Institute, Wayne, Pa., USA).” left out

Plasmodium falciparum [9] = details: clinical trials, malaria, administered alone or in combination with clindamycin; cited from earlier work
S. schleiferi [10] = test: MIC and MBC assays in Mueller-Hinton broth; format: cell-based, Staphylococcus schleiferi
Method: as §1

S. schleiferi [11] = test: plate-based fosmidomycin growth assay; format: cell-based, Staphylococcus schleiferi; details: 50 μg/mL fosmidomycin, Mueller-Hinton agar, 24 hours at 37° C.
Method: as §1, with “50 μL of the appropriate fosmidomycin concentration was added to each tube containing the starter culture, and was incubated at 37° C. overnight with shaking at 250 rpm for 18-20 hours.” left out, “For the plate-based fosmidomycin growth assay, overnight cultures of Staphylococcus species grown in Mueller-Hinton broth were sub-cultured to Mueller-Hinton agar plates containing 50 μg/mL fosmidomycin and were incubated for 24 hours at 37° C. All assays were performed and the results were interpreted using Clinical Laboratory Standards Institute guidelines (CLSI. (2013) Approved Standard-Fourth Edition. Clinical and Laboratory Standards Institute, Wayne, Pa., USA).” left out

[12] = plated on Mueller-Hinton agar, 24-hour incubation at 37° C.

O=CN(O)CCCP(=O)(O)O [fosmidomycin]
killing the parasite in culture (Plasmodium falciparum [1]): effective
MIC (S. epidermidis [2]): > 256 mg/L
MIC (S. lugdunensis): > 256 mg/L
MIC (S. aureus [3]): > 256 mg/L
MIC (S. pseudintermedius [4]; Staphylococcus pseudintermedius, Mueller-Hinton broth, 37° C., 18-20 hours, read-out: MIC (inhibited by concentrations as low as)): ≥ 0.5 mg/L
MBC (killed by concentrations of) (S. pseudintermedius [4]; [12]): 4 to 16 mg/L
inflammation score (Otitis Index Score) [5]: clinically insignificant
pain score (Short Form of the Glasgow Composite Pain Scale) [5]: clinically insignificant
growth on agar plates containing fosmidomycin (S. aureus [6]): grew
growth on agar plates containing fosmidomycin (S. pseudintermedius [7]): completely restricted growth
MIC (S. sciuri; Mammaliicoccus sciuri, Mueller-Hinton broth, 37° C., 18-20 hours, read-out: MIC (inhibited by concentrations as low as)): ≥ 0.5 mg/L
MBC (killed by concentrations of) (S. sciuri; [12]): 4 to 16 mg/L
growth on agar plates containing fosmidomycin (S. epidermidis [8]): grew
cure rates (Plasmodium falciparum [9]): 85-100%
inhibition of multi-drug resistant strain (S. schleiferi [10]; S. schleiferi strain 1360-13, multi-drug resistant phenotype): inhibited
MIC (S. schleiferi [10]; Staphylococcus schleiferi, Mueller-Hinton broth, 37° C., 18-20 hours, read-out: MIC (inhibited by concentrations as low as)): ≥ 0.5 mg/L
MBC (killed by concentrations of) (S. schleiferi [10]; [12]): 4 to 16 mg/L
growth on agar plates containing fosmidomycin (S. schleiferi [11]): completely restricted growth
